Converted amounts (≈) assume the structure as drawn.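 Protocol summary: plate cells (96-well), add compound at 5 concentrations, incubate 48 h, interpolate endpoints linearly. Here, GI50 denotes the concentration required for 50% inhibition of growth. TGI denotes the concentration required for complete inhibition of growth.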
What was measured:
Experiment in all cases: DTP human tumour cell line panel, 48 h
SK-MEL-5 melanoma = system: SK-MEL-5 melanoma
HOP-92 NSCLC = system: HOP-92 NSCLC
786-0 renal = system: 786-0 renal
UACC-257 melanoma = system: UACC-257 melanoma
IGROV1 ovarian = system: IGROV1 ovarian
SW-620 colon = system: SW-620 colon
OVCAR-3 ovarian = system: OVCAR-3 ovarian
DU-145 prostate = system: DU-145 prostate
HOP-62 NSCLC = system: HOP-62 NSCLC
MOLT-4 leukemia = system: MOLT-4 leukemia

| SMILES | TGI (SK-MEL-5 melanoma) [µM] | TGI (HOP-92 NSCLC) | TGI (786-0 renal) | TGI (UACC-257 melanoma) | TGI (IGROV1 ovarian) | TGI (SW-620 colon) | TGI (OVCAR-3 ovarian) [µM] | TGI (DU-145 prostate) | TGI (HOP-62 NSCLC) | TGI (MOLT-4 leukemia) | GI50 (SK-MEL-5 melanoma) [µM] | GI50 (HOP-62 NSCLC) | GI50 (786-0 renal) | GI50 (UACC-257 melanoma) | GI50 (IGROV1 ovarian) | GI50 (SW-620 colon) | GI50 (MOLT-4 leukemia) | GI50 (OVCAR-3 ovarian) [µM] | GI50 (DU-145 prostate) | GI50 (HOP-92 NSCLC) [ng/mL] |
| --- | --- | --- | --- | --- | --- | --- | --- | --- | --- | --- | --- | --- | --- | --- | --- | --- | --- | --- | --- | --- |
| CC1C(=O)N=C2C(=CN(Cc3ccccc3)c3ccccc32)C(=O)N1C (stereo not given) | > 100 | > 100 µM | > 100 µM | > 100 µM | > 100 µM | > 100 µM | > 100 | > 100 µM | – | – | – | – | – | – | – | – | – | – | – | – |
| O=[N+]([O-])c1ccc(Cc2nc3ccccc3s2)cc1 | > 100 | > 100 µM | > 100 µM | > 100 µM | > 100 µM | > 100 µM | > 100 | – | > 100 µM | > 100 µM | – | – | – | – | – | – | – | – | – | – |
| C=CCOc1cc2c(cc1C(C)c1ccc(OC)cc1)OCO2 (stereo not given) | > 56.3 | – | > 100 µM | 6.44 µM | > 100 µM | > 100 µM | – | > 100 µM | > 62.7 µM | > 40.6 µM | – | – | – | – | – | – | – | – | – | – |
| O=C(CC(=O)Nc1ccc(Cl)cc1)NNCC(=O)Nc1nc(-c2ccccc2)cs1 | > 100 | – | > 100 µM | – | > 100 µM | > 100 µM | > 100 | – | > 100 µM | > 100 µM | – | – | – | – | – | – | – | – | – | – |
| COc1ccc(C2(CN(C)C)COc3cc(OC)c(OC)cc3C2=O)cc1OC (stereo not given) | 60.7 | > 100 µM | > 100 µM | > 100 µM | > 100 µM | 45.8 µM | > 100 | – | > 100 µM | > 100 µM | – | – | – | – | – | – | – | – | – | – |
| Cc1cccc(C(C)O)n1 (stereo not given) | > 100 | – | > 100 µM | > 100 µM | > 100 µM | > 100 µM | > 100 | > 100 µM | > 100 µM | > 100 µM | – | – | – | – | – | – | – | – | – | – |
| COc1ccc2c(c1)[nH]c(=O)c1c3cccnc3cn21 | 0.0992 | – | 15.8 µM | 25.5 µM | 14.6 µM | 13.2 µM | 0.0588 | > 100 µM | 37 µM | > 100 µM | 0.025 | 0.0666 µM | 0.066 µM | 0.677 µM | 0.0627 µM | 0.0327 µM | 0.0675 µM | 0.0251 | 0.0365 µM | – |
| C/C(=N\NC(N)=S)c1ccc2c(c1)OCO2 | > 100 | > 100 µM | > 100 µM | > 100 µM | > 100 µM | > 100 µM | > 100 | – | > 100 µM | > 100 µM | – | – | – | – | – | – | – | – | – | – |
| Clc1ccc(C2=Nc3ccccc3SC(c3ccc(Cl)c(Cl)c3)C2)c(Cl)c1 (stereo not given) | 32.3 | 30.1 µM | 27.6 µM | 41.1 µM | 30.7 µM | 18.9 µM | 26.1 | – | 18.2 µM | 18.1 µM | – | – | – | – | – | – | – | – | – | – |
| Cc1ccccc1C(C#N)/C(=N/NC(=O)c1cc2ccccc2cc1O)C(=O)Nc1cccc(Cl)c1 (stereo not given) | 27.4 | > 100 µM | > 100 µM | 76.1 µM | 65.3 µM | > 100 µM | 92.7 | – | > 100 µM | > 100 µM | – | – | – | – | – | – | – | – | – | – |
| CCOC(=O)/C(C#N)=C(O)/C(=C/c1ccccc1Cl)NC(=O)c1ccccc1 | > 100 | > 100 µM | > 100 µM | > 100 µM | > 100 µM | 52.2 µM | > 100 | – | > 100 µM | > 100 µM | – | – | – | – | – | – | – | – | – | – |
| O=C1CCC(c2nc3ccccc3o2)C(=O)N1 (stereo not given) | > 100 | > 100 µM | > 100 µM | > 100 µM | > 100 µM | > 100 µM | > 100 | – | > 100 µM | > 100 µM | – | – | – | – | – | – | – | – | – | – |
| CN1C(c2ccccc2)CC(=Nc2ccccc2)CC1c1ccccc1 (stereo not given) | 22.8 | 22 µM | 27.7 µM | 24.1 µM | 38.4 µM | 22.9 µM | 24 | – | 34.6 µM | 28.7 µM | – | – | – | – | – | – | – | – | – | – |
| COc1cc2c(cc1OC)-c1c(cnn1C1OC(COC(C)=O)C(OC(C)=O)C(OC(C)=O)C1OC(C)=O)CC2 (stereo not given) | > 100 | > 100 µM | > 100 µM | > 100 µM | > 100 µM | > 100 µM | > 100 | – | > 100 µM | > 100 µM | – | – | – | – | – | – | – | – | – | – |
| O=C(Nc1ccc(C(F)(F)F)cc1[N+](=O)[O-])C(=O)C(C(=O)c1ccc2ccccc2c1)C1OC(=O)c2ccccc21 (stereo not given) | 18.8 | 4 µM | 19.5 µM | 24 µM | > 66.3 µM | 21.9 µM | > 51 | – | 14.8 µM | 10.6 µM | – | – | – | – | – | – | – | – | – | – |
| N=C(c1ccccc1)N1CCCCC1 | – | – | > 100 µM | > 100 µM | – | > 100 µM | – | – | > 100 µM | – | – | – | – | – | – | – | – | – | – | – |
| CCCCCCN1C(=O)/C(=c2\sc3n(c2=O)C2C(NN=3)N(CC)C(=O)N2CC)c2ccccc21 (stereo not given) | > 50 | – | > 50 µM | > 50 µM | > 50 µM | – | 2.06 | > 50 µM | > 50 µM | > 50 µM | 3.48 | 1.71 µM | 1.6 µM | 3.09 µM | 1.63 µM | – | 3.96 µM | 0.966 | 2.52 µM | – |
| OCCN(CO)CN(CN(CO)CCO)c1nc(N(CN(CO)CCO)CN(CO)CCO)nc(N(CN(CO)CCO)CN(CO)CCO)n1 | – | 3.6 ng/mL | 4.6 ng/mL | 3.21 ng/mL | 5.46 ng/mL | 6.27 ng/mL | – | 78.3 ng/mL | 4.38 ng/mL | 4.49 ng/mL | – | 1.47 ng/mL | 1.49 ng/mL | 1.42 ng/mL | 1.75 ng/mL | 0.55 ng/mL | 1.51 ng/mL | – | 1.9 ng/mL | 1.56 (≈ 2.09 nM) |
| COC(=O)c1nc(-c2ccc(Cl)c(Cl)c2)nc2ccccc12 | > 100 | – | 47.8 µM | > 100 µM | > 100 µM | > 100 µM | > 100 | – | 62.8 µM | > 100 µM | – | – | – | – | – | – | – | – | – | – |
| Cc1ccc2sc3cc(=O)cc(C)c-3nc2c1 | 38.4 | > 100 µM | > 100 µM | > 100 µM | > 100 µM | > 100 µM | > 100 | – | > 100 µM | > 100 µM | – | – | – | – | – | – | – | – | – | – |
| Cc1cc2c(C(C)C)c(O)c(O)c3coc(/c1=c1/c(C)cc4c(C(C)C)c(=O)c(=O)c5coc1c45)c32 | 28.6 | 7.11 µM | 22.1 µM | 31 µM | 15.1 µM | 17.4 µM | 16.6 | – | 23.7 µM | 17.4 µM | – | – | – | – | – | – | – | – | – | – |
| CC(=O)/C=C1/c2ccccc2N(C(C)=O)C1O (stereo not given) | – | > 100 µM | > 100 µM | > 100 µM | > 100 µM | > 100 µM | > 100 | – | > 100 µM | > 100 µM | – | – | – | – | – | – | – | – | – | – |

— PubChem BioAssay (NCI)
